Data set [1] has as its system NMDA-treated primary hippocampal neurons. The data set is described as follows: NMDA-triggered LDH release in primary hippocampal neuron culture. The following applies: for effect on NMDA-triggered LDH release (in words): 10 μM, 16 h pretreatment, NMDA 100 μM, 2.5 h, compared with NMDA alone; for effect of SC144 on the protection by compounds 2 or 8 against NMDA-evoked excitotoxicity (LDH): SC144 pretreatment/co-treatment with compound 2 or 8. From the text:
In this study, the cytotoxicity of NMDA was quantified by measuring the activity of lactate dehydrogenase (LDH) released from the cultured neurons into the medium and confirmed by living cell density analysis using calcein staining. […] MK-801, a noncompetitive antagonist of NMDA receptor, was used as a control [Wong et al., 1986, Proc. Natl. Acad. Sci. U.S.A., 83(18):7104].
(§1) In the present study, primary cultures of hippocampal neurons from E15-16 mouse embryos (C57BL/6) were used. The culture was made according to a previously described protocol with minor modifications [Bilousova et al. 2006, J. Neurochem. 97(1):44]. Hippocampi were isolated in ice-cold D-Hanks buffer containing (in mM: NaCl 136.7, KCl 5.4, NaHCO3 4.2, KH2PO4 0.4, NaH2PO4 0.6, glucose 5.6, and pH 7.4). In order to achieve a single cell suspension, hippocampal tissues were treated with papain (0.5 μg/mL) and Dnase (0.6 μg/mL) for 20 min at 37° C., followed by mechanical dissociation in complete media (Neurobasal medium supplemented with B27 (Invitrogen), 25 μM glutamate, and 1% penicillin-streptomycin). The cells were plated on poly-DL-ornithine (0.5 mg/mL), and laminin (5 μg/mL) pre-coated 96-well plates (Costar) at density 1×10^5 cells/mL and maintained in a humidified 5% CO2 incubator at 37° C. The proliferations of non-neuronal cells were limited by 48 h treatment with cytosine arabinoside (10 μM) started on first day in vitro (DIV1). All experiments were performed at 9 DIV cells.
Hippocampal neurons isolated from embryos were cultured for 8 days before treatment with chemical modulators (compounds). […] Briefly, the cells were washed three times with prewarmed Locke's buffer containing (in mM: NaCl 154, KCl 5.6, NaHCO3 3.6, CaCl2 2.3, MgCl2 1.2, glucose 5.6, HEPES 5, and pH 7.4) to remove traces of growth medium. […] The incubation was terminated by removal of compound-containing buffer, followed by washing with prewarmed drug-free Locke's buffer containing 1 mM Mg^2+.
Assessment of cell damage was done by measuring the LDH activity in the culture medium. The experiment was performed per the manufacturer's protocol (Promega). Release LDH levels were expressed as a percentage compared with that of the DMSO control group (100%).
A general note: Release of lactate dehydrogenase indicates damage to the cell membrane.

A further data set deals with human chondrocytes. The conditions noted are these: cited from earlier work.
Data set [2] has as its system NMDA-treated hippocampal neurons. Description: Calcein staining, density of living neurons under NMDA-induced excitotoxicity. Format: cell-based, mouse. The following applies: 10 μM pretreatment, NMDA 100 μM, 2.5 h.
From the text: Calcein staining was employed to evaluate the density of living neurons. A highly lipophilic non-fluorescent and cell permeable compound, calcein-acetoxymethyl ester (calcein-AM) was used for staining. Calcein-AM can be converted by intracellular esterases into calcein, an anionic fluorescent form, only labeling viable cells, and thus provides both morphological and functional information about undamaged cells.
as §1
Hippocampal neurons isolated from embryos were cultured for 8 days before treatment with chemical modulators (compounds). […]
A highly lipophilic non-fluorescent and cell permeable compound, calcein-acetoxymethyl ester (calcein-AM) was used to determine cell viability. […] Fluorescent images of live cells were collected using Lionheart FX automated digital microscope equipped with 4× objective and GFP filter cube (469/525); data was processed and analyzed using Gen5 software v. […]

The nature of data set [3]: Pharmacokinetic study, brain and plasma levels in mice. The data set is classed as in vivo, mouse. The following applies: for Cmax: mouse, brain. The procedure: Since any potential therapeutic for AD needs to cross the blood-brain barrier (BBB), we further evaluated the brain permeability of Gp130 compound 2 in mice. Mice were dosed orally at 10 or 30 mg/kg, or injected subcutaneously (SQ) at 10 mg/kg, and euthanized after 1, 2, 4, 6, and 8 hours post-dose. […] The brain to plasma ratio for compound 2 was ˜4:1 for oral 30 mg/kg; and […] for 10 mg/kg SQ injection. Based on the oral brain levels of compound 2 we will conduct proof-of-concept testing in a mouse model of NMDA-induced toxicity in future studies.
The brain penetrance and plasma levels of compound 2 were assessed in a pharmacokinetic (PK) study comprising oral dosing (30 mg/kg and 10 mg/kg) and subcutaneous (sub-Q, 10 mkd) injection. For each route and dose, 5 adult wildtype mice received either 5 μL of a 50 mg/ml stock in 100% DMSO mixed 50:50 with flavoring to give 10 μL total for 10 mg/kg oral; or 10 μL of a 75 mg/ml stock in 100% DMSO mixed 50:50 with flavoring to give 20 μL final for 30 mg/kg oral; or were injected with 50 μL of a 5 mg/ml stock in 100% DMSO for sub-Q 10 mg/kg, Mice were euthanized by ketamine/xylazine over-anesthesia at 1, 2, 4, 6, and 8 h post-dosing, and blood collected by cardiac puncture. The mice were then perfused with saline and brain tissue dissected and snap frozen on dry ice. Blood was centrifuged at 3000 rpm for 10 min and the plasma supernatant was collected. Both plasma and the right hemi-brain were sent to Integrated Analytical Solutions (IAS, Berkeley, Calif.) with a reference sample of compound for compound level analysis in tissue and plasma. The compound levels were determined using a LC-MS/MS approach.

Data set [4] has as its system pTyr-STAT3 in SH-SY5Y cells. The data set is described as follows: pSTAT3 AlphaLISA in SH-SY5Y cells. Format: cell-based, human. The conditions noted are these: 30 minutes, 1 μM. On the procedure:
Accordingly, the human neuroblastoma cell line SH-SY5Y was used, known to express the IL-6 receptor, […] to determine JAK-STAT activation as reflected by increases in pSTAT3. In the studies set forth in FIG. 2, cells were treated for 30 minutes with potential agonists PA1, PA2, and PA3; and then lysates were analyzed using the Sure-Fire Perkin-Elmer AlphaLISA for pTyr-STAT3.
A general note: Bead proximity is the source of the signal in Alpha formats.

We go through ten compounds from patent US10947207B2, “GP130 modulators” (THE REGENTS OF THE UNIVERSITY OF CALIFORNIA, priority 2016, dated 2021).

For orientation: Cmax means the peak of the concentration-time curve.

“And” between values parts separate entries of the source, which are not always exact repeats. Equal entries are not always repeated. “Also recorded” adds a separate entry of the source. Where two headings read alike, the source gives them in different places.

`Fc1ccc(Nc2nc(-c3ccc(F)cc3)cs2)cc1` [Compound 8, N,4-bis(4-fluorophenyl)thiazol-2-amine]: the “effect on NMDA-triggered LDH release (in words)” value (“effect … (in words)” for short) in data set [1] was “rescued LDH; also recorded: greatest decrease”.

As to `Brc1ccc(Nc2nc(-c3ccccc3)cs2)cc1` [Compound 1, N-(4-bromophenyl)-4-phenylthiazol-2-amine], in the data set on human chondrocytes, the “apoptosis of human chondrocytes” value is recorded as “reduce apoptosis of human chondrocytes” and the pSTAT3 result is “increase pSTAT3”.

Regarding `O=C(NNc1nc2cc(F)ccc2n2cccc12)c1cnccn1` [SC144], the “effect of SC144 on the protection by compounds 2 or 8 against NMDA-evoked excitotoxicity (LDH)” value in data set [1] is on record as “prevented compound 2 rescue; also recorded: prevented this rescue”; in data set [1] (listed as SC-144), “abated the protection”.

As for `Brc1ccc(Nc2nc(-c3cccnc3)cs2)cc1` [Compound 4, N-(4-bromophenyl)-4-(pyridin-3-yl)thiazol-2-amine], the “effect … (in words)” value in data set [1] is on record as “greatest decrease”.

As for `C[C@]12N[C@H](Cc3ccccc31)c1ccccc12` [MK801, reference compound], in data set [2], the “density of living neurons (calcein staining)” value is recorded as “significance”. Besides, the “effect … (in words)” value in data set [1] is reported as “rescued the LDH increase”.

As for “HNG: potent HN analog, HN with a substitution of serine 14 to glycine (MAPRGFSCLLLLTGEIDLPVKRRA; UniProt Q8IVG9 1-24, looked up, variant S14G)”, in data set [1], the “effect … (in words)” value is recorded as “significance”.

Take `Fc1ccc(Nc2nc(-c3ccccc3)cs2)c(F)c1` [Compound 5, N-(2,4-difluorophenyl)-4-phenylthiazol-2-amine]: in data set [1], the “effect … (in words)” value is reported as “greatest decrease”.

Take `Brc1ccc(Nc2nc(-c3ccccc3)cs2)cc1` [compound 1 (PA1)]: in the data set with human chondrocytes (Shkhyan et al. submitted manuscript), the Gp130 agonism result is “Gp130 agonist”.

On to `Fc1ccc(Nc2nc(-c3ccccc3)cs2)cc1` [Compound 2, N-(4-fluorophenyl)-4-phenylthiazol-2-amine], for which, in data set [3], the “oral brain permeability (in words)” value was “good oral brain permeability”. In addition, in data set [3] (dose of 30 mg/kg), the “oral bioavailability (in words)” value is “orally bioavailable”. The Cmax in data set [3] (po, 10 mg/kg, oral 10 mg/kg, at 1 h, read-out: Cmax for brain) was about 18 ng/g; in data set [3] (po, 30 mg/kg, oral 30 mg/kg, at 1 h post dose, read-out: Cmax for brain), ~570 nM and 156 ng/g; in data set [3] (po, 30 mg/kg, oral 30 mg/kg, read-out: Cmax) it was 570 nM; in data set [3] (subcutaneous, 10 mg/kg, SQ 10 mg/kg, at 2 h, read-out: Cmax for brain), 161 ng/g. Besides, the “density of living neurons (calcein staining)” value in data set [2] is “significance”; in data set [2] (listed as compound 2) it was “no difference in density of living neurons”. In addition, the “pSTAT3 levels over DMSO control” value in data set [4] is “increased pSTAT3”. Also, the “effect … (in words)” value is recorded as “greatest decrease” in data set [1] and “rescued the LDH increase” in data set [1] (listed as compound 2).

For “HN: 24-amino acid bioactive peptide encoded in the mitochondrial genome by the gene MT-RNR2”, in data set [1], the “effect … (in words)” value is recorded as “non-significance; also recorded: only one of them was active”. For the same compound, in data set [1] (no NMDA), the “effect on neurons which were not treated with NMDA” value is given as “Neither HN itself nor the compounds had effect”.
